Here are results for five molecules from patent US4230702A, “Readily enterally absorbable pharmaceutical compositions of per se poorly enterally absorbable pharmacologically active agents” (priority 1978, dated 1980).

Each structure is given as a SMILES string. Like-named read-outs stand apart in the source and are kept apart here.

Series [1] in a line: Renal excretion of benzarone, comparison of areas beneath the curves. It is filed as in vivo, rat. The note with it: 1000 mg/kg oral, rats, solution in Rilanit GMO compared with aqueous suspension, 15 hours. As for the experimental part: Furthermore doses of 1000 mg/kg of benzarone in the form of a solution in Rilanit GMO^4) and in form of a suspension in water are orally administered to rats by means of an oral feeding tube. The urine of the animals is collected every 2 hours over a period of 15 hours and the amount of the excreted benzarone therein is determined spectrophotometrically. The measured values are plotted on a graph and the areas beneath the resulting curves are compared.

The nature of series [2]: Blood (serum) level of benzarone, comparison of areas beneath the blood level curves. It is filed as in vivo, rat. To be noted: 1000 mg/kg oral, rats, solution in Rilanit GMO compared with aqueous suspension, up to 15 hours. As for the experimental part: For determining the blood level values, a dose of 1000 mg/kg of benzarone in form of a solution in Rilanit GMO^4) and in form of a suspension in water are administered to rats by means of an oral feeding tube.
Subsequently every two hours including the 10th hour, 8 animals of each group, and after 15 hours, 4 more animals of each group are sacrificed and their blood is recovered by means of a cordial cut. The amount of benzarone in the serum is determined spectrophotometrically. The measured blood level values are plotted on a graph and the areas beneath the resulting blood level curves are compared.

The nature of series [3]: Oral toxicity (LD50) of solutions in partial glycerides versus suspension in aqueous tylose. To be noted: guinea pig, in vivo, female guinea pigs. As for the experimental part: For testing the toxicity, solutions of g-strophanthin, proscillaridin A or medrogestone in various mixtures of mono-and diglycerides of long chain fatty acids and comparative formulations of the same pharmacologically active agents suspended in a tylose solution in water are administered orally to female guinea pigs of 250 to 300 g body weight by means of an oral feeding tube.

Series [4] can be described thus: Renal excretion of carbon-14 labelled progesterone, cumulative urinary 14C. The format is in vivo, guinea pig. The note with it: 20 mg/kg oral; for Cumulative Renal Excretion of Progesterone: guinea pigs. As for the experimental part: For determining the renal excretion, a dose of 20 mg/kg of carbon-14 labelled progesterone in the form of solutions in various mixtures of partial glycerides of long chain fatty acids and a comparative formulation wherein the progesterone is suspended in an aqueous tylose solution are administered orally to female guinea pigs having an average body weight of about 300 g. The urine of the animals is collected every 24 hours and the ^14 C-content in equal amounts of the urine is determined. The cumulated amount of excreted material is shown in Table II below in % of the administered dose. The percentage of excreted material is about 83% for the solution of progesterone in Peceol.

[5] abbreviates: solution in Peceol (mono, di, and triglycerides of oleic acid), read-out: LD50 in Peceol.
[6] abbreviates: solution in Witafrol 7470 (mono- and diglycerides of oleic acid), read-out: LD50 in Witafrol 7470.
The mark [7] stands for this setting: suspended in tylose (methylcellulose) solution in water, read-out: LD50 in Tylose.

With `CCc1oc2ccccc2c1C(=O)c1ccc(O)cc1` [benzarone, 2-ethyl-3-(4-hydroxybenzoyl)benzofuran], in series [1], the “increase of the renal excretion of benzarone (comparison of areas beneath the curves)” value is given as 437%. The “increase of the concentration of benzarone in the serum (comparison of areas beneath blood level curves)” value in series [2] came out at 257%.
On to `CC1OC(OC2CC(O)C3(CO)C4C(O)CC5(C)C(C6=CC(=O)OC6)CCC5(O)C4CCC3(O)C2)C(O)C(O)C1O` (stereo not shown) [g-strophanthin], for which the LD50 in series [3] (setting [5]) came out at 8.38 mg/kg; in series [3] (setting [6]), 8.28 mg/kg; in series [3] (setting [7]) it was 34.8 mg/kg.
`CC(=O)[C@@]1(C)CC[C@H]2[C@@H]3C=C(C)C4=CC(=O)CC[C@]4(C)[C@H]3CC[C@@]21C` [medrogestone]: the LD50 in series [3] (setting [5]) turned out to be 850 mg/kg; in series [3] (solution in Rilanit GMO (mono- and diglycerides of oleic acid), read-out: LD50 in Rilanit GMO), 862 mg/kg; in series [3] (setting [7]), 1470 mg/kg.
As for `CC(=O)[C@H]1CC[C@H]2[C@@H]3CCC4=CC(=O)CC[C@]4(C)[C@H]3CC[C@]12C` [progesterone], in series [4] (female guinea pigs, 14C-progesterone, solution in Peceol, % of the administered dose), the “percentage of excreted material” value is listed as “about 83%”. In series [4] (female guinea pigs, solution in Peceol versus tylose suspension), the “amount of excreted material relative to the suspension in the tylose solution” value was “about twice as high”. The “Cumulative Renal Excretion of Progesterone” value (from here on “Cumulative Renal Excretion”) is 46.0 % of the Administered Dose in series [4] (Peceol X1, 1. day); 64.6 % of the Administered Dose in series [4] (Peceol X1, 2. day); 71.6 % of the Administered Dose in series [4] (Peceol X1, 3. day); 76.1 % of the Administered Dose in series [4] (Peceol X1, 4. day); 79.1 % of the Administered Dose in series [4] (Peceol X1, 5. day); 81.1 % of the Administered Dose in series [4] (Peceol X1, 6. day). For the same molecule, the “Cumulative Renal Excretion” value is on record as 82.9 % of the Administered Dose in series [4] (Peceol X1, 7. day); 51.6 % of the Administered Dose in series [4] (Softigen 701, 1. day); 63.2 % of the Administered Dose in series [4] (Softigen 701, 2. day); 66.2 % of the Administered Dose in series [4] (Softigen 701, 3. day); 66.9 % of the Administered Dose in series [4] (Softigen 701, 4. day); 67.4 % of the Administered Dose in series [4] (Softigen 701, 5. day). Moreover, the “Cumulative Renal Excretion” value was 67.6 % of the Administered Dose in series [4] (Softigen 701, 6. day); 67.7 % of the Administered Dose in series [4] (Softigen 701, 7. day); 37.9 % of the Administered Dose in series [4] (Tegin 0, 1. day); 48.7 % of the Administered Dose in series [4] (Tegin 0, 2. day); 51.6 % of the Administered Dose in series [4] (Tegin 0, 3. day); 52.3 % of the Administered Dose in series [4] (Tegin 0, 4. day). Also, the “Cumulative Renal Excretion” value was 52.6 % of the Administered Dose in series [4] (Tegin 0, 5. day); 52.8 % of the Administered Dose in series [4] (Tegin 0, 6. day); 52.9 % of the Administered Dose in series [4] (Tegin 0, 7. day); 42.5 % of the Administered Dose in series [4] (Tegomuls X10, 1. day); 58.3 % of the Administered Dose in series [4] (Tegomuls X10, 2. day); 69.2 % of the Administered Dose in series [4] (Tegomuls X10, 3. day). Besides, the “Cumulative Renal Excretion” value in series [4] (Tegomuls X10, 4. day) was 75.2 % of the Administered Dose; in series [4] (Tegomuls X10, 5. day), 78.8 % of the Administered Dose; in series [4] (Tegomuls X10, 6. day), 80.6 % of the Administered Dose; in series [4] (Tegomuls X10, 7. day), 81.9 % of the Administered Dose; in series [4] (Tegomuls X17, 1. day), 43.7 % of the Administered Dose; in series [4] (Tegomuls X17, 2. day) it was 55.0 % of the Administered Dose. In addition, the “Cumulative Renal Excretion” value in series [4] (Tegomuls X17, 3. day) was 62.0 % of the Administered Dose; in series [4] (Tegomuls X17, 4. day), 66.6 % of the Administered Dose; in series [4] (Tegomuls X17, 5. day), 70.0 % of the Administered Dose; in series [4] (Tegomuls X17, 6. day) it was 71.9 % of the Administered Dose; in series [4] (Tegomuls X17, 7. day), 73.9 % of the Administered Dose; in series [4] (Tylose, 1. day), 29.7 % of the Administered Dose. Further, the “Cumulative Renal Excretion” value in series [4] (Tylose, 2. day) is recorded as 39.1 % of the Administered Dose; in series [4] (Tylose, 3. day) it was 43.0 % of the Administered Dose; in series [4] (Tylose, 4. day) it was 44.0 % of the Administered Dose; in series [4] (Tylose, 5. day), 44.5 % of the Administered Dose; in series [4] (Tylose, 6. day), 46.2 % of the Administered Dose; in series [4] (Tylose, 7. day), 46.4 % of the Administered Dose.
As for `C[C@@H]1O[C@@H](O[C@@H]2C=C3CC[C@@H]4[C@H](CC[C@]5(C)[C@@H](c6ccc(=O)oc6)CC[C@]45O)[C@@]3(C)CC2)[C@H](O)[C@H](O)[C@H]1O` [proscillaridin A], the LD50 is 7.77 mg/kg in series [3] (setting [5]), 6.81 mg/kg in series [3] (setting [6]) and 12.3 mg/kg in series [3] (setting [7]).

A word on the LD50: it is the dose expected to kill half of the subjects tested.
